Experimental data reported in patent publication US20230026772A1, “DIBENZOPYRAN AMPK ACTIVATOR COMPOUNDS, COMPOSITIONS, METHODS AND USES THEREOF” (SOCIETE DES PRODUITS NESTLE S.A., priority 2019, published 2023).

What was measured:
[1] = test system: AMPK complexes containing β1 S108A mutation at the ADaM site; test: pACC HTRF assay in AMPKβ1/β2 double knockout U-2 OS cells stably expressing β1 S108A mutant; type: cell-based, human; details: AMPKβ1β2 double knockout cells stably expressing β1 S108A mutant, varying concentrations, 30 mins at 37 C; FIG. 3
Experimental: (§1) The β1 WT or β1 S108A mutant were stably expressed in AMPKβ1β2 double knockout cells and treated with varying concentrations of compound 1 or compound 2 for 30 mins at 37 C. Phosphorylation of ACC was assessed using the HTRF Cisbio (pACC kit).
(§2) AMPKβ1/β2 double knockout U-2 OS Flp-In™ T-Rex™ cell lines were generated and cells were genotyped and analysed by Western blotting to confirm that there was a complete knockout of AMPKβ1/β2. We took these AMPKβ1/β2 double knockout cells, and re-introduced the expression of human β1 wild-type (WT) or a β1 Serine 108 to alanine mutation (S108A). This was achieved using the Flp-In™ system (Invitrogen) present in this cell line and stable cells expressing β1 WT or a β1 S108A mutant were generated according to the manufacturers' protocols.
(§3) Cells stably expressing β1 WT or a β1 S108A mutant were treated with varying concentrations of compound 1 and compound 2 and subjected to the pACC HTRF (Cisbio) assay to determine the level of phosphorylation of the AMPK substrate, ACC, in cell lysates, as in Example 2.

AMPKα2β1γ1 complex = molecular target: T1, AMPKα2β1γ1 complex (Homo sapiens, UniProt P54646+Q9Y478); test: HTRF KinEASE activity assay with bacterially-expressed, phosphorylated purified AMPKα2β1γ1; type: biochemical; details: varying concentrations, 30 mins incubation, cell free; FIG. 1
T1 construct: His; made in house
Experimental: Varying concentrations of compound 1 and compound 2 were incubated with phosphorylated purified AMPK α2β1γ1 for 30 mins. AMPK activity was determined using the HTRF KinEASE assay kit and results are presented as the ratio of 665/620 nm (STK1 phosphorylation).
The AMPKα2β1γ1 complex was expressed in bacteria and purified through the His-α subunit by nickel purification, purified through gel filtration and phosphorylated by incubation with CaMKKβ, and then further purified through a final gel filtration purification step. Phosphorylated purified AMPK was incubated with varying concentrations of ligand for 30 mins along with substrate and reagents from the HTRF-KinEASE Cisbio assay kit (STK S1 Kit). Phosphorylation of the substrate was measured by incubating with donor and acceptor antibodies for 2 h at room temperature as per the manufacturer's protocol (Coulerie et al., (2016), J Nat Prod. 2016 Nov. 23; 79(11):2856-2864. Epub 2016 Oct. 28.) and phosphorylated peptide detected by performing HTRF. […] Compound 1 is 3-methoxy-6H-benzo[c]chromene-1,8-diol and Compound 2 is 8-methoxy-6H-benzo[c]chromene-3,10-diol.

[2] = test system: AMPK complexes containing β1 WT subunit; test: pACC HTRF assay in AMPKβ1/β2 double knockout U-2 OS cells stably expressing β1 WT; type: cell-based, human; details: AMPKβ1β2 double knockout cells stably expressing β1 WT, varying concentrations, 30 mins at 37 C; FIG. 3 and FIG. 4
Experimental: as §1
(§4) U-2 OS cells AMPKβ1β2 double knockout cells stably expressing AMPK β1 or β2 were treated with varying concentrations of Compound 1 or compound 2 for 30 mins at 37 C.
(§5) Phosphorylation of ACC was assessed using the HTRF Cisbio (pACC kit).
as §2, §3
We took AMPKβ1/β2 double knockout cells, and re-introduced the expression of human β1 WT or β2 WT isoforms. […]

[3] = test system: AMPK complexes containing the β2 isoform subunit; test: pACC HTRF assay in AMPKβ1/β2 double knockout U-2 OS cells stably expressing β2 WT; type: cell-based, human; details: AMPKβ1β2 double knockout cells stably expressing β2 WT isoform, varying concentrations, 30 mins at 37 C; FIG. 4
Experimental: as §4, §5
We took AMPKβ1/β2 double knockout cells, and re-introduced the expression of human β1 WT or β2 WT isoforms. […] Cells stably expressing β1 WT or β2 WT were treated with varying concentrations of compound 1 and compound 2, and subjected to the pACC HTRF (Cisbio) assay to determine the level of phosphorylation of the AMPK substrate, ACC, in cell lysates, as in example 2. […] This activation profile is characteristic of activators that bind to the ADaM site and consistent with previous studies showing that ADaM-site activators have poorer activation of β2-containing complexes in vitro and in cells.

[4] = test system: AMPK (phosphorylation of ACC) in U-2 OS Flp-In T-REx mammalian cells; test: pACC HTRF (Cisbio) assay in U-2 OS Flp-In T-REx cells; type: cell-based; details: varying concentrations, 30 mins at 37 C, FIG. 2
Experimental: U-2 OS cells were treated with varying concentrations of compound 1 or compound 2 for 30 mins at 37 C. Phosphorylation of ACC was assessed using the HTRF Cisbio (pACC kit).
U-2 OS Flp-In T-REx cells were seeded at 50 K in a 96-well plate and left overnight at 37 C in DMEM GlutaMAX (Thermo Fisher Scientific) supplemented with 10% (vol/vol) FBS and 100 U/ml penicillin G, and 100 μg/ml streptomycin. Cells were treated for 30 mins with varying concentrations of Compound 1 in media lacking FBS and then cells were lysed in 50 μl of Cisbio lysis buffer #1 supplemented with blocking solution as per the manufacturer's protocol (Cisbio). Cells were lysed for 30 mins at room temperature before 16 μl of lysate was incubated with 4 μl of the HTRF antibodies (1:40 dilution of the acceptor and donor (p) ACC antibodies, as per the manufacturers protocol). Lysates were incubated overnight with the antibodies before 665 nm/620 nm ratio was determined using a MolecularDevices i3 plate reader (with a HTRF cartridge add-on). The results are plotted as fold activation compared to the respective AMPK complex without any compound.

T1 sequence (P54646 whole entry): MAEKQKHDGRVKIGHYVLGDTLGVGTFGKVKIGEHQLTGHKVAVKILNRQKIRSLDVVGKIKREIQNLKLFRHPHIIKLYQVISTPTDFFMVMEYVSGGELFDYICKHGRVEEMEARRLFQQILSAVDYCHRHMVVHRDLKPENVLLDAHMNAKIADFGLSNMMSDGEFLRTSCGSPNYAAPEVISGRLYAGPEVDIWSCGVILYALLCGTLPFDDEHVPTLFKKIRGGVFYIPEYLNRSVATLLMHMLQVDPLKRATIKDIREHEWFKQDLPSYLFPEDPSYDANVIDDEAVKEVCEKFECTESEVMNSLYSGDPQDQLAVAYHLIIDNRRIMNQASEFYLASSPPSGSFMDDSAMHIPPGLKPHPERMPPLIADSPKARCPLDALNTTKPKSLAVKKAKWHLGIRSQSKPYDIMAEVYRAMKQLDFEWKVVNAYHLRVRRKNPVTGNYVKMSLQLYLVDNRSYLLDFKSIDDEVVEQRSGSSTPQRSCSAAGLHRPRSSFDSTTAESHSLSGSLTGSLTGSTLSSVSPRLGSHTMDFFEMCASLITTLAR
T1 sequence (Q9Y478 whole entry): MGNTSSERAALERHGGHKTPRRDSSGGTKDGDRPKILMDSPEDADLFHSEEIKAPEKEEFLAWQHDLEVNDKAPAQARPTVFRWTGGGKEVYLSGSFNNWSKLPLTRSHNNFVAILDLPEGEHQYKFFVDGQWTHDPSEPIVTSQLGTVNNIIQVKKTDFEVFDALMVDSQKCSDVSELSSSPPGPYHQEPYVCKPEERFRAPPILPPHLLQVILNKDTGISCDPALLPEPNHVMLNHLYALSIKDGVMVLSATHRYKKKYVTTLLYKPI
T1 sequence (P54619 whole entry partner): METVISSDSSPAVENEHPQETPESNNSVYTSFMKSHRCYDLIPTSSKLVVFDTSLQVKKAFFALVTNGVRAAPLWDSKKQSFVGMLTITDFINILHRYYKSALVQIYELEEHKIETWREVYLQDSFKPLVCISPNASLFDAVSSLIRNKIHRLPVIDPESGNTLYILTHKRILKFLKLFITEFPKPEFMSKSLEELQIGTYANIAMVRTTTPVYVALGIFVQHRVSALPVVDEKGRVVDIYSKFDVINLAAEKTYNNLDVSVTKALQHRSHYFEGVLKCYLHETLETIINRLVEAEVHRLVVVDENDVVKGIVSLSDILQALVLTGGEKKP

Row | SMILES | Phosphorylation of ACC (pACC, fold increase relative to untreated cells) [1] | AMPK activity (665 nm/620 nm ratio, STK1 substrate phosphorylation) (AMPKα2β1γ1 complex) | Phosphorylation of ACC (pACC, fold increase relative to untreated cells) [2] | Phosphorylation of ACC (pACC, fold increase relative to untreated cells) [3] | Phosphorylation of ACC (fold activation relative to untreated cells) [4]
1 | COc1cc(O)c2c(c1)OCc1cc(O)ccc1-2 [Compound 1, 3-methoxy-6H-benzo[c]chromene-1,8-diol] | not able to increase pACC | allosterically activate AMPKα2β1γ1 in a dose-dependent manner | able to dose-dependently increase pACC | not able to increase pACC | increase the phosphorylation of the AMPK substrate, ACC, in a dose-dependent manner
2 | COc1cc(O)c2c(c1)COc1cc(O)ccc1-2 [Compound 2, 8-methoxy-6H-benzo[c]chromene-3,10-diol] | not able to increase pACC | allosterically activate AMPKα2β1γ1 in a dose-dependent manner | able to dose-dependently increase pACC | not able to increase pACC | increase the phosphorylation of the AMPK substrate, ACC, in a dose-dependent manner
